Reference: ChEMBL document CHEMBL1177695, “Discovery and development of natural product-derived chemotherapeutic agents based on a medicinal chemistry approach” (J Nat Prod, 2010)
Values after ≈ are worked out from the molar mass of the structure shown.

How the values were obtained:
[1] = Inhibition of tubulin polymerization
[2] = Cytotoxicity against human KB1 cells after 72 hrs by MTT assay; type: functional, cell-based; conditions: KB1, 72 h
[3] = tested on: KB; experiment: Cytotoxicity against human KB cells after 72 hrs by MTT assay; type: functional, cell-based; conditions: for EC50: read-out: ED50 (the source's name)
[4] = Cytotoxicity against human KB-7d cells after 72 hrs by MTT assay; type: functional, cell-based; conditions: KB7D; for EC50: read-out: ED50 (the source's name)
[5] = tested on: KB; experiment: Cytotoxicity against human etoposide-resistant KB cells after 72 hrs by MTT assay
[6] = tested on: Human immunodeficiency virus 1; experiment: Antiviral activity against HIV1 3B infected in H9 cells assessed as inhibition of viral replication by p24 antigen ELISA; type: functional, organism-based; conditions: Human immunodeficiency virus 1, 3B, H9; read-out: EC50
[7] = Therapeutic index, ratio of IC50 for human H9 cells to EC50 for HIV 3B; type: cell-based; conditions: read-out: TI
[8] = Cytotoxicity against human H9 cells after 4 days by coulter counter; type: cell-based; conditions: human, H9 cells; read-out: TI
[9] = Therapeutic index, ratio of IC50 for human H9 cells to EC50 for HIV1; type: cell-based; conditions: read-out: TI
[10] = tested on: Human immunodeficiency virus 1; experiment: Antiviral activity against HIV1 infected in human H9 cells after 4 days by p24 antigen ELISA; type: functional, organism-based; conditions: Human immunodeficiency virus 1, H9, 96 h
[11] = tested on: A-431; experiment: Cytotoxicity against human A431 cells after 3 days by sulforhodamine B assay; type: functional, cell-based; conditions: A-431, 72 h
[12] = Cytotoxicity against human KBVIN cells after 3 days by sulforhodamine B assay; type: functional, cell-based; conditions: 72 h
[13] = tested on: PC-3; experiment: Cytotoxicity against human PC3 cells after 3 days by sulforhodamine B assay; type: functional, cell-based; conditions: PC-3, 72 h
[14] = tested on: HCT-8; experiment: Cytotoxicity against human HCT8 cells after 3 days by sulforhodamine B assay; type: functional, cell-based; conditions: HCT-8, 72 h
[15] = tested on: 1A9; experiment: Cytotoxicity against human 1A9 cells after 3 days by sulforhodamine B assay; type: functional, cell-based; conditions: 1A9, 72 h
[16] = tested on: KB; experiment: Cytotoxicity against human KB cells after 3 days by sulforhodamine B assay; type: functional, cell-based; conditions: 72 h
[17] = tested on: A549; experiment: Cytotoxicity against human A549 cells after 3 days by sulforhodamine B assay; type: functional, cell-based; conditions: A549, 72 h

`COc1cc2c(c(OC)c1OC)-c1ccc(SC)c(=O)cc1[C@@H](OC(=O)Oc1ccncc1)CC2` showed an IC50 [1] of 560 nM.
Molecule `COc1cc([C@@H]2c3cc4c(cc3[C@@H](Nc3ccc(F)cc3)[C@H]3COC(=O)[C@H]23)OCO4)cc(OC)c1O` has an IC50 [2] of 4000 nM, an IC50 [3] of 670 nM and an IC50 [4] of 8300 nM. It also gave an IC50 [5] of 7200 nM.
`CC1(C)C=C2[C@H]3CC[C@@H]4[C@@]5(C)CCC(=O)C(C)(C)[C@@H]5CC[C@@]4(C)[C@]3(C)CC[C@@]2(C(=O)O)CC1` [MORONIC ACID] gave an EC50 [6] of less than 220 nM and a selectivity ratio [7] greater than 186.
`Cc1cn([C@H]2C[C@H](N=[N+]=[N-])[C@@H](CO)O2)c(=O)[nH]c1=O` [ZIDOVUDINE] gave an EC50 [6] of 44 nM.
Work on `Cc1cc2c(c3oc(=O)ccc13)[C@@H](OC(=O)C13CCC(C)(C(=O)O1)C3(C)C)[C@@H](OC(=O)C13CCC(C)(C(=O)O1)C3(C)C)C(C)(C)O2` (stereo partly drawn) yielded an EC50 [6] of 8 nM and a selectivity ratio at 96 h [8] greater than 16.
`COC(=O)c1ccc(N[C@@H]2c3cc4c(cc3[C@@H](c3cc(OC)c(O)c(OC)c3)[C@H]3C(=O)OC[C@@H]32)OCO4)cc1` showed an IC50 [2] of 2500 nM, an IC50 [3] of 840 nM and an IC50 [4] of 7000 nM. It also gave an IC50 [5] of 3300 nM.
Molecule `COc1cc2c(c(OC)c1OC)-c1ccc(SC)c(=O)cc1C(=O)CC2` [THIOCOLCHICONE] has an IC50 [1] of 760 nM.
`COc1cc([C@@H]2c3cc4c(cc3[C@@H](O[C@@H]3O[C@@H]5CO[C@@H](C)O[C@H]5[C@H](O)[C@H]3O)[C@H]3COC(=O)[C@H]23)OCO4)cc(OC)c1O` [ETOPOSIDE] gave an IC50 [2] of 34800 nM, an IC50 [3] of 600 nM and an EC50 [3] of 200 nM. It also gave an IC50 [4] of 77500 nM, an EC50 [4] of 25000 nM and an IC50 [5] of 28700 nM.
`COc1cc2ccc3c(c2oc1=O)[C@@H](OC(=O)C12CCC(C)(C(=O)O1)C2(C)C)[C@@H](OC(=O)C12CCC(C)(C(=O)O1)C2(C)C)C(C)(C)O3` (stereo partly drawn) gave an EC50 [6] of 30 nM and a selectivity ratio at 96 h [8] greater than 15.
With `COc1cc([C@@H]2c3cc4c(cc3[C@@H](Nc3ccc([N+](=O)[O-])cc3)[C@H]3COC(=O)[C@H]23)OCO4)cc(OC)c1O` the IC50 [2] was 6100 nM, the IC50 [3] was 490 nM and the EC50 [3] was 0.2 µg/mL. The IC50 [4] was 7700 nM, the EC50 [4] was 2 µg/mL and the IC50 [5] was 3000 nM.
Molecule `C=C(C)[C@@H]1CC[C@]2(C(=O)O)CC[C@]3(C)[C@H](CC[C@@H]4[C@@]5(C)CC[C@H](OC(=O)COCC(=O)O)C(C)(C)[C@@H]5CC[C@]43C)[C@@H]12` has a selectivity ratio [9] of 1170 and an IC50 [10] of 11700 nM.
In the case of `C[C@@H]1O[C@@H](O[C@H]2CC[C@]3(C=O)[C@H]4CC[C@]5(C)[C@@H](c6ccc(=O)oc6)CC[C@]5(O)[C@@H]4CC[C@]3(O)C2)[C@@H](O)[C@H](O)[C@@H]1O` [KALANCHOSIDE B], the IC50 [11] is reported as 0.022 µg/mL (≈ 0.0391 µM), the IC50 [12] is reported as 0.013 µg/mL (≈ 0.0231 µM) and the IC50 [13] is reported as 0.01 µg/mL (≈ 0.0178 µM). The IC50 [14] was 0.015 µg/mL (≈ 0.0267 µM), the IC50 [15] was 0.007 µg/mL (≈ 0.0124 µM) and the IC50 [16] was 0.005 µg/mL (≈ 0.00889 µM). For the same molecule, the IC50 [17] was 0.001 µg/mL (≈ 0.00178 µM).
For `C=C(C)[C@@H]1CC[C@]2(C(=O)O)CC[C@]3(C)[C@H](CC[C@@H]4[C@@]5(C)CC[C@H](OC(=O)C(C)(C)CC(=O)O)C(C)(C)[C@@H]5CC[C@]43C)[C@@H]12`, the selectivity ratio [9] was 6.7 and the IC50 [10] was 15900 nM.
`COc1cc2c(c(OC)c1OC)-c1c(cc3c(c1OC)OCO3)[C@H](OC(=O)c1ccccc1)[C@@](C)(O)[C@@H](C)C2` [GOMISIN G] gave an EC50 [6] of 11 nM and a selectivity ratio [7] of 600.
For `COc1c(C)c(O)c(C(=O)/C=C(\O)c2ccccc2)c(O)c1C=O`, the EC50 [6] was 67 nM and the selectivity ratio [7] was 489.
In the case of `CC(=O)O[C@@H]1[C@H](OC(=O)CC(C)C)c2c(ccc3ccc(=O)oc23)OC1(C)C` [SUKSDORFIN], the EC50 [6] is reported as 1300 nM and the selectivity ratio [7] is reported as 40.
In the case of `COc1cc2c(c(OC)c1OC)-c1ccc(SC)cc1C(=O)CC2`, the IC50 [1] is reported as 500 nM.
In the case of `COc1cc2c(c3oc(=O)ccc13)[C@@H](OC(=O)C13CCC(C)(C(=O)O1)C3(C)C)[C@@H](OC(=O)C13CCC(C)(C(=O)O1)C3(C)C)C(C)(C)O2` (stereo partly drawn), the EC50 [6] is reported as 44 nM and the selectivity ratio at 96 h [8] is reported as greater than 15.
In the case of `CC(C)=CCC/C(C)=C/CC[C@@]1(C)C=Cc2c(cc(C)c(C(=O)O)c2O)O1` [DAURICHROMENIC ACID], the EC50 [6] is reported as 15 nM and the selectivity ratio [7] is reported as 3710.
In the case of `CC1(C)Oc2ccc3ccc(=O)oc3c2[C@@H](OC(=O)C23CCC(C)(C(=O)O2)C3(C)C)[C@H]1OC(=O)C12CCC(C)(C(=O)O1)C2(C)C` (stereo partly drawn), the EC50 [6] is reported as 50 nM and the selectivity ratio at 96 h [8] is reported as greater than 16.1.
